Laboratory results as given in ChEMBL document CHEMBL4806968, “Hipk inhibitors and methods of use thereof” (2020).

Assays:
Homo sapiens = organism: Homo sapiens; assay: Inhibition of LYNA (unknown origin) at 0.5 uM relative to control
[1] = molecular target: Mitogen-activated protein kinase kinase kinase 10 (Homo sapiens) (UniProt Q02779); assay: Inhibition of MLK2 (unknown origin) at 0.5 uM relative to control
[2] = molecular target: Ephrin type-A receptor 2 (Homo sapiens) (UniProt P29317); assay: Inhibition of EPHA2 (unknown origin) at 0.5 uM relative to control
[3] = molecular target: Ephrin type-B receptor 3 (Homo sapiens) (UniProt P54753); assay: Inhibition of EPHB3 (unknown origin) at 0.5 uM relative to control
[4] = molecular target: Vascular endothelial growth factor receptor 3 (Homo sapiens) (UniProt P35916); assay: Inhibition of FLT4 (unknown origin) at 0.5 uM relative to control
[5] = molecular target: Inhibitor of nuclear factor kappa-B kinase subunit epsilon (Homo sapiens) (UniProt Q14164); assay: Inhibition of IKK-epsilon (unknown origin) at 0.5 uM relative to control
[6] = molecular target: Proto-oncogene tyrosine-protein kinase Src (Homo sapiens) (UniProt P12931); assay: Inhibition of SRC (unknown origin) at 0.5 uM relative to control
[7] = molecular target: MAP kinase-interacting serine/threonine-protein kinase 1 (Homo sapiens) (UniProt Q9BUB5); assay: Inhibition of MNK1 (unknown origin) at 0.5 uM relative to control

Sequence of Inhibitor of nuclear factor kappa-B kinase subunit epsilon (Homo sapiens) (Q14164 whole entry): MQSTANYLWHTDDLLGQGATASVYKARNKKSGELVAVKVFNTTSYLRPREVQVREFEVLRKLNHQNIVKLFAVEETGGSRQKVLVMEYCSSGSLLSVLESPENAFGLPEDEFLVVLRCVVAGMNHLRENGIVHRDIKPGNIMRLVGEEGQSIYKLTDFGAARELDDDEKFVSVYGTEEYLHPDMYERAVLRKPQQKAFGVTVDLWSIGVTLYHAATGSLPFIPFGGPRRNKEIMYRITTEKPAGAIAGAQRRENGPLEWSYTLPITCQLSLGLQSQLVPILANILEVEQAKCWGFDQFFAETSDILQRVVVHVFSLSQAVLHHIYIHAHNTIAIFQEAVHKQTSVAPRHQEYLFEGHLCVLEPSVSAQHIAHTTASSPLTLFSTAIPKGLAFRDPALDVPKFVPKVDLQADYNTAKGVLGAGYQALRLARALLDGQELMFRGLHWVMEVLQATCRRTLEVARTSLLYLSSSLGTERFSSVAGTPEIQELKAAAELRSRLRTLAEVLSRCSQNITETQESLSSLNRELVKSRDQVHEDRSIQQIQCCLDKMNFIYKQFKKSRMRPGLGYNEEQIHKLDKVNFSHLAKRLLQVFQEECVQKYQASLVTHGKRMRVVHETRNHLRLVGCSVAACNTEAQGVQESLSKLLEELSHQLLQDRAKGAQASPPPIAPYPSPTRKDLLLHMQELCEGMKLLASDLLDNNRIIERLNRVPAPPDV
Sequence of Ephrin type-A receptor 2 (Homo sapiens) (P29317 whole entry): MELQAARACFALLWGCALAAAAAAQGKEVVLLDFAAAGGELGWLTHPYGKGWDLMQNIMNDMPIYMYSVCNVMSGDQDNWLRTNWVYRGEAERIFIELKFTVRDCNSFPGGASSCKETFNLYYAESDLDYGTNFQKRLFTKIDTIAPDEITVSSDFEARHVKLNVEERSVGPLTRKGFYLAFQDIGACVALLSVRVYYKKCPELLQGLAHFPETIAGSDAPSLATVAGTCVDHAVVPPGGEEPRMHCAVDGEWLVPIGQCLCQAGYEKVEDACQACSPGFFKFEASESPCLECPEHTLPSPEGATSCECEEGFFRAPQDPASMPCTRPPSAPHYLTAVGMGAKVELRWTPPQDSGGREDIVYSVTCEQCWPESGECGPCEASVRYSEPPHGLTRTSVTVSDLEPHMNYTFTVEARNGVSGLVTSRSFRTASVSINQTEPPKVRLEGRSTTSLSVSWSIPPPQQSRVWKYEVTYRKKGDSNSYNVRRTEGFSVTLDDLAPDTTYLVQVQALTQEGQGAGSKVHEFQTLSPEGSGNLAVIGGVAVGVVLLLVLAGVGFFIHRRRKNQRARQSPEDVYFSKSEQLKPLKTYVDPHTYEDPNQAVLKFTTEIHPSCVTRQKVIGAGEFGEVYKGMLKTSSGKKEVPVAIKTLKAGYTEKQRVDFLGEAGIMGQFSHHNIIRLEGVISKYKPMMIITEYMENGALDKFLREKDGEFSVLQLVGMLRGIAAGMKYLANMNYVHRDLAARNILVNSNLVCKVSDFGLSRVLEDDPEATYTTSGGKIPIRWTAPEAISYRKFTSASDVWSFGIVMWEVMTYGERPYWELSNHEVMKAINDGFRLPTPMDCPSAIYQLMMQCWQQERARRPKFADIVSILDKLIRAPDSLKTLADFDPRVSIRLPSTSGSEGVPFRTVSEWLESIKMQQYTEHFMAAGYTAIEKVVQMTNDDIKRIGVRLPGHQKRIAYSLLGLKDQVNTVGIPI
Sequence of Ephrin type-B receptor 3 (Homo sapiens) (P54753 whole entry): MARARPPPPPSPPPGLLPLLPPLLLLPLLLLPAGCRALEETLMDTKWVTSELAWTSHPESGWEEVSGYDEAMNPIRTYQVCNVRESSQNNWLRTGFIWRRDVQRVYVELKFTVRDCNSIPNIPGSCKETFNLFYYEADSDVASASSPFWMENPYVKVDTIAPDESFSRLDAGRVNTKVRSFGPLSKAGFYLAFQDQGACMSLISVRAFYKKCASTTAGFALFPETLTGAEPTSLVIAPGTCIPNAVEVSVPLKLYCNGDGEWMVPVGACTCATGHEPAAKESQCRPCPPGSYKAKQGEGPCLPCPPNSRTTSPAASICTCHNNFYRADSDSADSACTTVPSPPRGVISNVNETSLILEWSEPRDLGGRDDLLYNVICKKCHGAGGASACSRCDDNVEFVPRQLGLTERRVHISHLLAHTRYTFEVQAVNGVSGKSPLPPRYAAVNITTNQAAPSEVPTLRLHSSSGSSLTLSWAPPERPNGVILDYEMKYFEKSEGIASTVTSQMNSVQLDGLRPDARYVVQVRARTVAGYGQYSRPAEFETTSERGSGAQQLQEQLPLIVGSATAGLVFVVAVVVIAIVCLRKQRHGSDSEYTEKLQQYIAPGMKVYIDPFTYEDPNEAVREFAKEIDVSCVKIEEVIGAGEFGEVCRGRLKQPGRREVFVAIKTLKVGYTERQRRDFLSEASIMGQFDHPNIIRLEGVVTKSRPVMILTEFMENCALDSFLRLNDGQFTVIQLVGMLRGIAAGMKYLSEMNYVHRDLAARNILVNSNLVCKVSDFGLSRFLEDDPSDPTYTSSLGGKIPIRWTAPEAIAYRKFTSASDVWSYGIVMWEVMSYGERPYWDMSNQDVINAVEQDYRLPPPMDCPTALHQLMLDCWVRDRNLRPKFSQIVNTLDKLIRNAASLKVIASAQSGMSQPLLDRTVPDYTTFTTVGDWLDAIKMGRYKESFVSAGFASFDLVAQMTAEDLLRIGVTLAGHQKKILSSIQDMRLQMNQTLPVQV
Sequence of Mitogen-activated protein kinase kinase kinase 10 (Homo sapiens) (Q02779 whole entry, looked up): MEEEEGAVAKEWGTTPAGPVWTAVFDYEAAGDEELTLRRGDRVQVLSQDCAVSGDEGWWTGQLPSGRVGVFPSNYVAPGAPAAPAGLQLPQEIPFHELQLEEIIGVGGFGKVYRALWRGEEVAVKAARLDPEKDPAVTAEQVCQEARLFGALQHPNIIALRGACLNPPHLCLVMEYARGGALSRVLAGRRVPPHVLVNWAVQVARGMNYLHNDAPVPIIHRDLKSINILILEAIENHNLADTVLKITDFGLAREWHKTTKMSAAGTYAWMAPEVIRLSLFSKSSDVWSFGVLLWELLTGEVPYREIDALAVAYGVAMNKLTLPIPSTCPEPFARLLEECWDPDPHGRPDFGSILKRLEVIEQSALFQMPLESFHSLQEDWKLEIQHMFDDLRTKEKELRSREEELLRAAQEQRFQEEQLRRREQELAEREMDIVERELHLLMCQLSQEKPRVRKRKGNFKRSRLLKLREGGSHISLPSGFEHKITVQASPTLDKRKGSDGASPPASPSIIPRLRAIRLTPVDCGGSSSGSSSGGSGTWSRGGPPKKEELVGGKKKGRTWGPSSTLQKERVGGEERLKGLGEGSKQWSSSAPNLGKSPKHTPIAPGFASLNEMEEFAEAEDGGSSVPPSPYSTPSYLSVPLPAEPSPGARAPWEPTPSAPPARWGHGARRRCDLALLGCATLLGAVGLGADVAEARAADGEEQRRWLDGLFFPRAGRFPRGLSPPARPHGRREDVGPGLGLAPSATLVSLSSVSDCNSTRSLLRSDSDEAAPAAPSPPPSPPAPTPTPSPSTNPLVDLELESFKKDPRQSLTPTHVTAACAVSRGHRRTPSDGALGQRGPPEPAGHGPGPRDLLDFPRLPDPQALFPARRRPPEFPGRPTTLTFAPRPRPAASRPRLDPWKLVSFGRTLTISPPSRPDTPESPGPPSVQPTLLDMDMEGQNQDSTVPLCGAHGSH
Sequence of Vascular endothelial growth factor receptor 3 (Homo sapiens) (P35916 whole entry): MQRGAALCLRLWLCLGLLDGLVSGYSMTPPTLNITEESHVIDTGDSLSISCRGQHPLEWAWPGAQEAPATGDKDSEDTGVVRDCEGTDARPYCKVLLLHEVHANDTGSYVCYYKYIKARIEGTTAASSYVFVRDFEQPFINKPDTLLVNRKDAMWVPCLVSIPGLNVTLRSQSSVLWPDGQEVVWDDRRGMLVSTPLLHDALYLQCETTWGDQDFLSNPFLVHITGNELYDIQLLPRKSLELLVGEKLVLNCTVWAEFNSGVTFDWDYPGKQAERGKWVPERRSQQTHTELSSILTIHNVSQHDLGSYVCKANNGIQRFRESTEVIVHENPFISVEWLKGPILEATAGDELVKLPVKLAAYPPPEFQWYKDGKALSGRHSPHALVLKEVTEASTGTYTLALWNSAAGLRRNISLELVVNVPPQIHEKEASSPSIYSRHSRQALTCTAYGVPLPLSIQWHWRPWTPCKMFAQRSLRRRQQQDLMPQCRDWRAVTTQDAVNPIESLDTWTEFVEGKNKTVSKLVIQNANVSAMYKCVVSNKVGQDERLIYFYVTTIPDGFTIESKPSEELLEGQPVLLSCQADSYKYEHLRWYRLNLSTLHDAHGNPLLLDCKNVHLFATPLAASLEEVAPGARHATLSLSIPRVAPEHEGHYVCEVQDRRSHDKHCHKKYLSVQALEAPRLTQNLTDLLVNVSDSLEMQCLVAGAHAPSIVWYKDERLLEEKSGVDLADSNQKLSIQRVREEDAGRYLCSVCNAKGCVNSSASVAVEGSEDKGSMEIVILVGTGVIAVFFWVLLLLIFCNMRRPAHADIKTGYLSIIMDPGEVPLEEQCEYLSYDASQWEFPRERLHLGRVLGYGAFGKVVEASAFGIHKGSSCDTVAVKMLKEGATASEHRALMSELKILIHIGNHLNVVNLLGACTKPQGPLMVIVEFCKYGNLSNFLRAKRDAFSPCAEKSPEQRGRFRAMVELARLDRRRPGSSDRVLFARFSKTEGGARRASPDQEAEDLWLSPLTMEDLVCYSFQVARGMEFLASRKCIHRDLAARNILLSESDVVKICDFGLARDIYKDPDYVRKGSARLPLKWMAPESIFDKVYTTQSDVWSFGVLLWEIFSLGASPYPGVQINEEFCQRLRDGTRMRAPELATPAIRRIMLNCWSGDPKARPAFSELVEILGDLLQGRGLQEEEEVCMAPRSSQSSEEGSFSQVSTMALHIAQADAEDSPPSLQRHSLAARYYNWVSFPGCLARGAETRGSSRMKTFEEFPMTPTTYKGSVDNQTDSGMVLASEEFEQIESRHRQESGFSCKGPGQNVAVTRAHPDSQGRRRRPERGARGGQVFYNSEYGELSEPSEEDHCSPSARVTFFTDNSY

CNC(=O)c1cc(Oc2ccc(NC(=O)c3nc(SC)[nH]c3-c3ccc(F)cc3)cc2)ccn1
inhibition (Homo sapiens): 84%

CSc1nc(C(=O)Nc2ccc(Oc3cc4cnn(C)c4cc3Br)cc2)c(-c2ccc(F)cc2)o1
inhibition [1]: 21% | inhibition [2]: 25%

CNC(=O)c1cc(Oc2ccc(NC(=O)c3nc(C(F)(F)F)sc3-c3ccc(F)cc3)cc2)ccn1
inhibition [3]: 23% | inhibition [4]: 25%

CNC(=O)c1cc(Oc2ccc(NC(=O)c3nc(SC)n(CCN(C)C)c3-c3ccc(F)cc3)cc2)ccn1
inhibition [5]: 34%

CNC(=O)c1cc(Oc2ccc(NC(=O)c3nc(SC)oc3-c3ccc(F)cc3)cc2F)ccn1
inhibition [6]: 40%

CNC(=O)c1cc(Oc2ccc(NC(=O)c3n[nH]nc3-c3ccc(F)cc3)cc2)ccn1
inhibition [7]: 54%
